Measured values from paper PMC4336141, “Repurposing Auranofin as a Lead Candidate for Treatment of Lymphatic Filariasis and Onchocerciasis” (PLoS Neglected Tropical Diseases, 2015).
Where “and” joins values, the source holds several entries; their conditions need not be identical. Identical values can stand only once.

Assays:
[1] = Plasma gold levels (elemental gold analysis) in Brugia infected gerbils; assay type: in vivo, Mongolian gerbils (Meriones unguiculatus)
Description: Animal studies were performed under IACUC approval #AN085723–02 to test the efficacy of auranofin in vivo. Male Mongolian gerbils (Meriones unguiculatus, Charles River Laboratories International, Inc., Wilmington, MA) were injected intraperitoneally (IP) with 300 B. pahangi L3 (Filariatech, Inc., Athens, GA) and treated 3 months post-infection. Auranofin was dissolved in 100% ethanol at 4 mg/mL and mixed 1:1 with PBS. Vehicle doses consisted of the same mixture of ethanol and PBS but without auranofin. Doses (up to 200 μl) were given to gerbils orally at 5 mg/kg body weight, BID weekdays and SID weekends for a total of 48 doses over 4 weeks.
Two studies (Study 1 and Study 2) were conducted using the same protocols and the same dosing schedule except that in Study 1, two gerbils from the auranofin treatment group and two gerbils from the vehicle group were treated for 14 days and were necropsied 2 hours after their last dose (interim necropsy) to determine plasma gold levels (from auranofin). The remaining gerbils in Study 1 were treated for 28 days and were necropsied 11, 14, or 16 days after the end of dosing. In Study 2, all gerbils were treated for 28 days and were necropsied 16 days after the end of dosing. For both of these in vivo studies, worms were collected from the gerbil’s peritoneal cavity, counted, sexed and examined under a dissecting microscope. For each study a two-tailed Student’s T-test assuming equal variance was conducted using Microsoft Excel to determine the statistical significance of the difference in mean worm retrieval between the auranofin treated and vehicle treated groups. Gerbil blood was collected by cardiac puncture and plasma was sent to NMS Labs, Willow Grove, PA to determine plasma gold levels (elemental gold analysis) by graphite furnace atomic absorption spectroscopy.

[2] = system: endogenous Brugia thioredoxin reductase; assay: Thioredoxin reductase activity of lysates of worms recovered from gerbils treated in vivo
Description: (§1) Thioredoxin reductase activity of worm lysates was assayed using female B. malayi treated in vitro with either 0.3 μM, 0.1 μM, or 0.03 μM auranofin or 1% DMSO. After 5 hours of treatment, worm motility was measured using the Worminator, and then worms (24 in each group) were pooled, washed three times in PBS, and lysed by douncing in a glass homogenizer in assay buffer (Abcam Thioredoxin Reductase Assay kit, ab83463) with 1 mM PMSF. The crude lysates were centrifuged at 10,000 rcf for 15 minutes at 4°C to pellet insoluble material. The total protein concentrations of soluble lysates were measured using the Bradford assay. The soluble lysates were incubated for 20 minutes in assay buffer or assay buffer with a proprietary thioredoxin reductase specific inhibitor before adding a specific substrate, DTNB (5, 5′-dithiobis (2-nitrobenzoic) acid), and measuring activity at 20 second intervals for 40 minutes using the SpectraMax Plus Microplate Reader (Molecular Devices, Sunnyvale, CA) at λ = 412 nm. Lysates were tested in duplicate. TrxR activity was calculated based on the linear amount of TNB produced per minute per mg of total protein and adjusted for background activity from enzymes other than TrxR in the lysates.
Thioredoxin reductase activity was also analyzed in worms that were treated with auranofin or vehicle in vivo. […]

O. volvulus L3 = assay: Onchocerca volvulus L3 molting inhibition in vitro; assay type: cell-based; settings: O. volvulus L3, Day 6, inhibition of molting
Description: L3 stage larvae previously collected and cryopreserved in Cameroon were rapidly thawed in a 37°C water bath and washed in incomplete media comprised of a 1:1 ratio of Medium NCTC-109 and IMDM + GlutaMax-I containing 1X glutamine, penicillin, and streptomycin (all from Gibco by Life Technologies, Grand Island, NY). The number of worms was adjusted to about 10 worms per 50 μL in complete medium containing 20% heat inactivated FCS. Worms were distributed into the wells of a 96-well plate containing 50 μL of 1.5 × 10^5 normal human PBMCs. 100 μL of 2X auranofin (final concentrations of 30 μM, 10 μM, 3 μM, 1 μM and 0.3 μM) were added to each well for a final volume of 200 μL. Each concentration was tested in triplicate. Controls included 0.05% DMSO in complete medium and complete medium only with neither DMSO nor compound added. The 96-well plates were then incubated at 37°C in a 5% CO2 incubator for 6 days, then molting was assessed using an inverted microscope. Molting was determined in each well by counting the presence of fourth-stage larvae (L4) and empty casts of the L3. The percent inhibition of molting was calculated based on the number of treated larvae that were able to molt in comparison to the number of control larvae that had successfully molted. Prism 4.0 for Windows was used to calculate IC50s.

glutathione peroxidase = target: glutathione peroxidase; parameters: method as in PMID 9685351; settings: higher IC50; cited from earlier work
[3] = system: cysteine protease cathepsin B; parameters: method as in PMID 16789749; settings: cited from earlier work
[4] = system: endogenous Brugia thioredoxin reductase; assay: Thioredoxin reductase activity of lysates of female B. malayi treated in vitro; assay type: biochemical, Brugia malayi; settings: 5 hours in vitro, female worms, soluble lysate
Description: as §1

**Q.** With `CC[PH](CC)(CC)[Au][S][C@@H]1O[C@H](COC(C)=O)[C@@H](OC(C)=O)[C@H](OC(C)=O)[C@H]1OC(C)=O` [auranofin, 2,3,4,6-tetra-O-acetyl-1-thio-beta-D-glucopyranosato-S (triethylphosphine) gold] as the compound, how does the “mean plasma gold level” value ([1]; Study 1, 16 days after the last dose) read?
**A.** 701 nM

**Q.** What about the “mean plasma gold level” value ([1]; Study 2, 16 days after the last dose) of the same compound?
**A.** 609 nM

**Q.** What about the Plasma gold levels ([1]; Study #1, 2 hours after last dose, interim necropsy after 14 days of treatment, 5 mg/kg oral, individual gerbils, 5 mg/kg) of the same compound?
**A.** 1700 µg/L and 1000 µg/L

**Q.** And the Plasma gold levels ([1]; Study #1, 11 days after last dose, 28 days of treatment)?
**A.** 270 µg/L

**Q.** And the Plasma gold levels ([1]; Study #1, 14 days after last dose, 28 days of treatment)?
**A.** 340 µg/L

**Q.** What about the Plasma gold levels ([1]; Study #1, 16 days after last dose, individual gerbils, values less than 100 μg/L given as zero) of the same compound?
**A.** 170 µg/L and 190 µg/L and 160 µg/L

**Q.** And the Concentration of gold ([1]; Study #1, plasma, 2 hours after last dose, interim necropsy after 14 days of treatment, individual gerbils)?
**A.** 5080 nM and 8630 nM and 8631 nM and 5077 nM

**Q.** And the Concentration of gold ([1]; Study #1, plasma, 11 days after last dose)?
**A.** 1371 nM

**Q.** What about the Concentration of gold ([1]; Study #1, plasma, 14 days after last dose) of the same compound?
**A.** 1726 nM

**Q.** And the Concentration of gold ([1]; Study #1, plasma, 16 days after last dose, individual gerbils, values less than 508 nM given as zero)?
**A.** 863 nM and 965 nM and 812 nM

**Q.** What about the Plasma gold levels ([1]; Study #2, 16 days after last dose, individual gerbils, values less than 100 μg/L given as zero) of the same compound?
**A.** 130 µg/L and 190 µg/L and 160 µg/L

**Q.** And the Concentration of gold ([1]; Study #2, plasma, 16 days after last dose, individual gerbils, values less than 508 nM given as zero)?
**A.** 660 nM and 965 nM and 812 nM

**Q.** And the “gold levels in blood” value ([1]; approximately 2 weeks after the last dose)?
**A.** 0.66 µM

**Q.** And the “Thioredoxin reductase activity, percent of vehicle control” value ([2]; worms collected 16 days after the last dose from treated gerbils)?
**A.** 51%

**Q.** What about the “reduction of endogenous thioredoxin reductase activity vs vehicle” value ([2]; worms removed 16 days after the last dose from gerbils treated 28 days) of the same compound?
**A.** 49%

**Q.** And the IC50 (O. volvulus L3)?
**A.** 0.3 µM

**Q.** What about the “IC50 relative to TrxR isolated from human placenta” value (glutathione peroxidase) of the same compound?
**A.** about 1000 fold

**Q.** And the IC50 [3]?
**A.** ~250 µM

**Q.** And the “Thioredoxin reductase activity, percent of DMSO control” value ([4]; 0.03 μM)?
**A.** 69%

**Q.** What about the “Thioredoxin reductase activity, percent of DMSO control” value ([4]; 0.1 μM) of the same compound?
**A.** 33%

**Q.** What about the “Thioredoxin reductase activity, percent of DMSO control” value ([4]; 0.3 μM) of the same compound?
**A.** 15%
